Test results as given in patent publication US9879050B2, “Substituted urea depsipeptide analogs as activators of the CLPP endopeptidase” (priority 2013, dated 2018).
Converted amounts (≈) assume the structure as drawn. Where two headings read alike, the source gives them in different places.

Columns and labels:
S. aureus ClpP (Sa-ClpP) = molecular target: T1, S. aureus ClpP (Sa-ClpP) (Staphylococcus aureus, UniProt Q2G036); assay: ClpP activation, casein-BODIPY digestion assay (first described method); format: biochemical; conditions: first described ClpP activation assay (**); 10 μM saClpP, 25 μg/ml BODIPY FL casein, 37° C.; read-out: ClpP Activation EC50
T1 construct: made in house; host or cells: E. coli BL21 (DE3)
T1 sequence (Q2G036 whole entry): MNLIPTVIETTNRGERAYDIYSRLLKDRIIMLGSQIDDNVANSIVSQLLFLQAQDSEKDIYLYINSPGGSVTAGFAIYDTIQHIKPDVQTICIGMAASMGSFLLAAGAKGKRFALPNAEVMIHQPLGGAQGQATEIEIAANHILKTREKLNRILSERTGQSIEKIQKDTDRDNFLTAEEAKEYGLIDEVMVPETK
Procedure: The compounds were assayed in a casein digestion assay in order to determine their effect on ClpP activation. Briefly, the assay was carried out using S. aureus ClpP (“Sa-ClpP”) overexpressed in E. coli BL21 (DE3) and purified in a two-step process. Purity of the protein was assessed through SDS PAGE analysis. EC50 evaluations were conducted in triplicate in a 20 μl assay format using a method adapted from Maurizi et al. (Methods Enzymol. (1994) 244:314-331.). Each well contained 10 μM saClpP, 25 μg/ml BODIPY FL casein (Invitrogen Corporation, San Diego, Calif.), and test compound in concentrations ranging between 0-100 μM in assay buffer (50 mM Tris pH 8, 200 mM KCl, and 1 mM TCEP). The reaction took place at 37° C. Fluorescence (excitation 485 nm; emission 528 nm) was measured in five minute intervals over a 45 min period using a BioTek HT fluorescence microplate reader (BioTek Instruments, Inc., Winooski, Vt.). Velocity of each reaction was calculated and data was fit to a dose response curve using GraphPad Prism® software (GraphPad Software, Inc., La Jolla, Calif.). EC50 is the effective concentration of compound which causes 50% activation of S. aureus ClpP in the foregoing BODIPY FL casein assay.

Sa-ClpP [1] = molecular target: T2, Sa-ClpP (Staphylococcus aureus, UniProt Q2G036); assay: ADEP displacement fluorescence polarization assay; format: binding, S. aureus; conditions: 1 μM Sa-ClpP, 50 nM FP probe ADEP 2591; read-out: ADEP Displacement IC50
T2 construct: made in house; host or cells: E. coli BL21 (DE3)
T2 sequence (Q2G036 whole entry): as above
Procedure, shortened: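 Displacement of TAMRA-labelled ADEP 2591 probe (50 nM) from 1 μM Sa-ClpP, pre-equilibrated 1 h in Tris·HCl pH 8.0 with 2% DMSO, then 120 min at room temperature with compound, triplicate. Polarization (mP) read ex 530/em 579 nm, normalised to 20 μM ADEP 2378 and DMSO controls; four-parameter fit.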

[2] = Cytotoxicity assay, CellTiter-Glo cell viability; format: cell-based; conditions: African green monkey
Procedure: Cytotoxicity was determined by determining the effect of compounds on cell viability. Vero (kidney epithelial cells; ATCC CCL-81) monolayers were trypsinized and 5000 cells/well were seeded (10-15% confluency) into white-wall, flat bottom 96 well microwell plates (Corning) using enriched Dulbecco's Modified Eagle's Medium (Hyclone: DMEM/High Glucose) containing 10% Fetal Bovine Serum (ATCC-30-2020). Plates were incubated overnight at 37° C. in the presence of 5% CO2. Drug-free media was then replaced with media containing serial dilutions of test compound or DMSO carrier. After an additional 72 hours of incubation, viability was indirectly measured using the CellTiter-Glo® Luminescent Cell Viability (Promega) assay. Assay plates were read at peak emission wavelength of 560 nm using a EnVision® Multilabel Plate Reader (Perkin Elmer) or PHERAstar FS Multilabel reader (BMG, Cary, N.C.). […] USA, www.graphpad.com]. For each experiment, compounds were tested in duplicate. IC50 values presented are the range of two biologically independent experiments.

B. subtilis ATCC 23857 = assay: Minimal inhibitory concentration, microbroth dilution; format: cell-based; conditions: Bacillus subtilis, ATCC23857, read-out: Minimal Inhibitory Concentration B. subtilis ATCC 23857
Procedure: (§1) Minimal inhibitory concentrations (“MICs”) were determined using the microbroth dilution method according to Clinical Laboratory Standards Institute (CLSI; National, C.F. C. L. S., Methods for Dilution Antimicrobial Susceptibility Tests for Bacteria Grow aerobically-Seventh Edition: Approved Standard M7-A7, CLSI, Wayne, Pa., USA, 2008) and were read by visual inspection. Two fold serial dilutions of test compound in 100 μL of the appropriate broth media were first prepared in 96-well round bottom microtiter plates (Nalgene Nunc International, Rochester, N.Y., USA). An equivalent volume (100 μL) of bacterial broth inocula containing approximately 10^5 bacterial cfu/mL was added to each well to give final concentrations of test compound starting at 200 μM. The plates were then incubated aerobically at 37° C. All strains were incubated overnight. After incubations, in all cases the MIC was recorded as the lowest concentration of drug that prevented bacterial growth. The bacterial strains for which MIC was determined as described in Table 4.

S. aureus ATCC 29213 = assay: as above; format: cell-based; conditions: Staphylococcus aureus, ATCC29213, read-out: Minimal Inhibitory Concentration S. aureus ATCC 29213
Procedure: as §1

S. aureus USA 300 ΔClpP = assay: as above; format: cell-based, Staphylococcus aureus; conditions: ClpP inactivated strain
Procedure, shortened: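 Susceptibility testing used the CLSI dilution standard, with bacteria at ~10^5 cfu/mL exposed to a two-fold compound series beginning at 200 μM final. The endpoint is the lowest concentration showing no growth after overnight incubation (37 °C, aerobic).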

Sa-ClpP [3] = molecular target: T2, Sa-ClpP; assay: ClpP activation, EnzCheck Protease Assay with Bodipy-FL casein (second described method); format: biochemical, S. aureus; conditions: read-out: ClpP Activation EC50 (converted)
Procedure, shortened: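 Sa-ClpP (2 μM in master mix) with Bodipy-FL casein (2 μM in master mix) in Tris-HCl pH 8.0, 0.01% Triton X-100, compounds in 2% DMSO, triplicate. Fluorescence (ex 485/em 520 nm) followed 30 min; degradation slopes normalized to ADEP4 and DMSO controls, EC50 and % activation by four-parameter fit.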

S. pneumoniae R6 = assay: Minimal inhibitory concentration, microbroth dilution; format: cell-based; conditions: Streptococcus pneumoniae, R6, read-out: Minimal Inhibitory Concentration S. pneumoniae R6
Procedure, shortened: (§2)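 Twofold serial dilutions in broth per CLSI M7-A7 microbroth dilution, incubated aerobically overnight at 37° C. MIC read visually as lowest concentration preventing bacterial growth.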

S. pyogenes ATCC 700294 = assay: as above; format: cell-based; conditions: Streptococcus pyogenes, ATCC700294, read-out: Minimal Inhibitory Concentration S. pyogenes ATCC 700294
Procedure, shortened: as §2

[4] = Vero cells, 72 hours, read-out: Cytotoxicity IC50

Row | SMILES | EC50 (S. aureus ClpP (Sa-ClpP)) | IC50 (Sa-ClpP [1]) | IC50 at 72 h [2] | MIC (B. subtilis ATCC 23857) | MIC (S. aureus ATCC 29213) | Minimal Inhibitory Concentration S. aureus USA 300 ΔClpP (S. aureus USA 300 ΔClpP) | EC50 (Sa-ClpP [3]) | MIC (S. pneumoniae R6) | MIC (S. pyogenes ATCC 700294) | IC50 at 72 h [2, 4]
1 | C[C@@H]1C[C@H]2C(=O)OC[C@H](NC(=O)[C@H](Cc3cc(F)cc(F)c3)NC(=O)Nc3ccc(OC(F)(F)F)cc3)C(=O)N3CCC[C@H]3C(=O)N3CCCC[C@H]3C(=O)N[C@@H](C)C(=O)N2C1 [Compound 13, (S)-3-(3,5-Difluorophenyl)-N-((2R,6S,8aS,14aS,20S,23aS)-2,6-Dimethyl-5,8,14,19,23-Pentaoxooctadecahydro-1H,5H,14H,19H-Pyrido[2,1-I]Dipyrrolo[2,1-C:2′,1′-L][1]Oxa[4,7,10,13]Tetraazacyclohexadecin-20-Yl)-2-(3-(4-(Trifluoromethoxy)Phenyl)Ureido)Propanamide] | 3.2 ± 0.6 µM | 5.69 ± 0.5 µM | 70.9 ± 8.9 µM |  |  |  |  |  |  | 
2 | CCc1ccc(NC(=O)N[C@@H](Cc2cc(F)cc(F)c2)C(=O)N[C@H]2COC(=O)[C@@H]3C[C@@H](C)CN3C(=O)[C@H](C)NC(=O)[C@@H]3CCCCN3C(=O)[C@@H]3CCCN3C2=O)cc1 [Compound 14, (S)-3-(3,5-Difluorophenyl)-N-((2R,6S,8aS,14aS,20S,23aS)-2,6-Dimethyl-5,8,14,19,23-Pentaoxooctadecahydro-1H,5H,14H,19H-Pyrido[2,1-I]Dipyrrolo[2,1-C:2′,1′-L][1]Oxa[4,7,10,13]Tetraazacyclohexadecin-20-Yl)-2-(3-(4-Ethylphenyl)Ureido)Propanamide] | 2.5 ± 0.6 µM | 61.3 ± 5 µM | 70.5 ± 13.5 µM |  |  |  |  |  |  | 
3 | Cc1ccc(NC(=O)N[C@@H](Cc2cc(F)cc(F)c2)C(=O)N[C@@H]2C(=O)N3CCCC3C(=O)N(C)[C@@H](C)C(=O)N[C@@H](C)C(=O)N3CCCC3C(=O)O[C@H]2C)cc1 (stereo partly drawn) [Compound 25, (2S)-3-(3,5-Difluorophenyl)-N-((6S,9S,11aS,17S,18S)-6,9,10,18-Tetramethyl-5,8,11,16,20-Pentaoxohexadecahydro-1H,5H,16H-Dipyrrolo[2,1-C:2′,1′-L][1]Oxa[4,7,10,13]Tetraazacyclohexadecin-17-Yl)-2-(3-(P-Tolyl)Ureido)Propanamide] |  | 8.9 ± 0.3 µM |  | 0.02 µM (≈ 0.0154 µg/mL) | 0.78 µM (≈ 0.599 µg/mL) | 200 µM | 0.48 ± 0.03 µM | 0.254 µM (≈ 0.195 µg/mL) | 1 µM (≈ 0.768 µg/mL) | 10.8 ± 1 µM
4 | Cc1ccc(NC(=O)N[C@@H](Cc2cc(F)cc(F)c2)C(=O)N[C@@H]2C(=O)N3CCCC3C(=O)N(C)[C@@H](C)C(=O)N[C@@H](C)C(=O)N3C[C@@H](C)CC3C(=O)O[C@H]2C)cc1 (stereo partly drawn) [Compound 26, (2S)-3-(3,5-Difluorophenyl)-N-((2S,6S,9S,11aS,17S,18S)-2,6,9,10,18-Pentamethyl-5,8,11,16,20-Pentaoxohexadecahydro-1H,5H,16H-Dipyrrolo[2,1-C:2′,1′-L][1]Oxa[4,7,10,13]Tetraazacyclohexadecin-17-Yl)-2-(3-(P-Tolyl)Ureido)Propanamide] |  | 8.2 ± 0.3 µM |  | 0.03 µM (≈ 0.0235 µg/mL) | 0.2 µM (≈ 0.156 µg/mL) | 200 µM | 0.29 ± 0.01 µM | 0.125 µM (≈ 0.0977 µg/mL) | 0.5 µM (≈ 0.391 µg/mL) | 40.5 ± 3.8 µM
5 | Cc1ccc(NC(=O)N[C@@H](Cc2cc(F)cc(F)c2)C(=O)N[C@@H]2C(=O)N3CCCC3C(=O)N3CCOCC3C(=O)N[C@@H](C)C(=O)N3C[C@@H](C)CC3C(=O)O[C@H]2C)cc1 (stereo partly drawn) [Compound 33, (S)-3-(3,5-Difluorophenyl)-2-(3-(P-Tolyl)Ureido)-N-((6aS,12S,13S,1 5aS,17S,21S,23aS)-13,17,21-Trimethyl-6,11,15,20,23-Pentaoxooctadecahydro-6H,11H,15H-[1,4]Oxazino[3,4-I]Dipyrrolo[2,1-C:2′,1′-L][1]Oxa[4,7,10,13]Tetraazacyclohexadecin-12-Yl)Propanamide] |  | 5.6 ± 0.3 µM |  | 0.2 µM (≈ 0.162 µg/mL) | 0.2 µM (≈ 0.162 µg/mL) | 200 µM | 0.39 ± 0.02 µM | 0.098 µM (≈ 0.0794 µg/mL) | 0.39 µM (≈ 0.316 µg/mL) | 41 ± 4.3 µM
6 | Cc1ccc(NC(=O)N[C@@H](Cc2cc(F)cc(F)c2)C(=O)N[C@@H]2C(=O)N3CCCC3C(=O)N3CCCCC3C(=O)N[C@@H](C)C(=O)N3C[C@H](C)CC3C(=O)O[C@H]2C)cc1 (stereo partly drawn) [Compound 39, (S)-3-(3,5-Difluorophenyl)-2-(3-(P-Tolyl)Ureido)-N-((2R,6S,8aS,14aS,20S,21S,23aS)-2,6,21-Trimethyl-5,8,14,19,23-Pentaoxooctadecahydro-1H,5H,14H,19H-Pyrido[2,1-I]Dipyrrolo[2,1-C:2′,1′-L][1]Oxa[4,7,10,13]Tetraazacyclohexadecin-20-Yl)Propanamide] |  | 9 ± 0.4 µM |  | 0.02 µM (≈ 0.0162 µg/mL) | 0.05 µM (≈ 0.0404 µg/mL) | 100 µM | 0.48 ± 0.03 µM | 0.05 µM (≈ 0.0404 µg/mL) | 0.2 µM (≈ 0.162 µg/mL) | 40 ± 4.1 µM
7 | Cc1ccc(NC(=O)N[C@@H](Cc2ccccc2)C(=O)N[C@H]2COC(=O)C3C[C@H](C)CN3C(=O)[C@H](C)NC(=O)C3CCCCN3C(=O)C3CCCN3C2=O)cc1 (stereo partly drawn) [Compound 43, (S)—N-((2S,6S,8aS,14aS,20S,23aS)-2,6-Dimethyl-5,8,14,19,23-Pentaoxooctadecahydro-1H,5H,14H,19H-Pyrido[2,1-I]Dipyrrolo[2,1-C:2′,1′-L][1]Oxa[4,7,10,13]Tetraazacyclohexadecin-20-Yl)-3-Phenyl-2-(3-(P-Tolyl)Ureido)Propanamide] |  | 6.57 ± 0.2 µM |  | 0.4 µM (≈ 0.303 µg/mL) | 1.6 µM (≈ 1.21 µg/mL) | >200 µM | 0.37 ± 0.03 µM | 0.2 µM (≈ 0.152 µg/mL) | 0.8 µM (≈ 0.606 µg/mL) | 74.5 ± 8.8 µM
